Assay results published in patent US20220073554A1, “LINCOSAMIDE ANTIBIOTICS AND USES THEREOF” (President and Fellows of Harvard College, priority 2017, published 2022).
In brackets after ≈: the same amount, converted by molar mass. Read-outs that look alike come from different tables or passages of the source.

Experiments:
Assay type in all cases: cell-based
S. pneumoniae ATCC 49619 = test: MIC against S. pneumoniae ATCC 49619; details: Streptococcus pneumoniae, ATCC49619
S. aureus ATCC 29213 = test: MIC against S. aureus ATCC 29213; details: Staphylococcus aureus
H. influenzae ATCC 49247 = test: MIC against H. influenzae ATCC 49247; details: Haemophilus influenzae, ATCC49247
C. difficile BAA 1805 = test: MIC against C. difficile BAA 1805; details: Clostridioides difficile, BAA1805
E. coli MP-9 ΔTolC = test: MIC against E. coli MP-9 ΔTolC; details: Escherichia coli
E. coli ATCC 25922 = test: MIC against E. coli ATCC 25922; details: Escherichia coli, ATCC25922
[1] = system: E. coli MP-74 LptD mutant; test: MIC against E. coli MP-74 LptD mutant; details: Escherichia coli
[2] = system: S. aureus MP-549 msr(a) USA 300; test: MIC against S. aureus MP-549 msr(a) USA 300; details: Staphylococcus aureus, USA300, S. aureus MP-549 msr(a) USA 300
K. pneumoniae ATCC 10031 = test: MIC against K. pneumoniae ATCC 10031; details: Klebsiella pneumoniae, ATCC10031
E. faecalis ATCC 29212 = test: MIC against E. faecalis ATCC 29212; details: Enterococcus faecalis
S. aureus BAA 977 iErmA = test: MIC against S. aureus BAA 977 iErmA; details: Staphylococcus aureus, BAA977
[3] = system: S. pyogenes MMX 946 Macrolide-Resistant; test: MIC against S. pyogenes MMX 946 Macrolide-Resistant; details: Streptococcus pyogenes, read-out: MIC
[4] = system: S. pneumoniae MMX 3031 cMefA; test: MIC against S. pneumoniae MMX 3031 cMefA; details: Streptococcus pneumoniae, MMX3031CMEFA
[5] = system: E. faecalis MMX 847 Macrolide-Resistant; test: MIC against E. faecalis MMX 847 Macrolide-Resistant; details: Enterococcus faecalis, read-out: MIC
S. aureus MMX 3035 cErmA = test: MIC against S. aureus MMX 3035 cErmA; details: Staphylococcus aureus, MMX3035CERMA; S. aureus MMX 3035 cErmA; read-out: MIC
S. pyogenes ATCC 19615 = test: MIC against S. pyogenes ATCC 19615; details: Streptococcus pyogenes, ATCC19615; S. pyogenes ATCC 19615; read-out: MIC
[6] = system: S. pneumoniae MMX 3028 cErmB; test: MIC against S. pneumoniae MMX 3028 cErmB; details: Streptococcus pneumoniae, MMX3028CERMB; S. pneumoniae MMX 3028 cErmB; read-out: MIC
E. coli ATCC 15922 = test: MIC against E. coli ATCC 15922; details: Escherichia coli, ATCC15922; E. coli ATCC 15922; read-out: MIC
[7] = S. pneumoniae ATCC 49619, read-out: MIC
[8] = H. influenzae ATCC 49247, read-out: MIC
[9] = K. pneumoniae ATCC 10031, read-out: MIC
[10] = ATCC29213, S. aureus ATCC 29213, read-out: MIC
[11] = S. pyogenes MMX 946 Macrolide-Resistant (MacRes)
[12] = E. coli ATCC 25922, read-out: MIC
[13] = E. faecalis MMX 847 Macrolide-Resistant (MacRes)

SMILES | MIC (E. coli MP-9 ΔTolC) | MIC [1] | MIC [2] | MIC (S. aureus BAA 977 iErmA) | MIC (S. pneumoniae ATCC 49619; [7]) | MIC (H. influenzae ATCC 49247; [8]) | MIC [4] | MIC (S. aureus MMX 3035 cErmA) | MIC (S. pyogenes ATCC 19615) | MIC [6] | MIC (S. aureus ATCC 29213; [10]) | MIC (E. coli ATCC 15922) | MIC (E. faecalis ATCC 29212; ATCC29212, read-out: MIC) | further results
CSC1O[C@H]([C@H](NC(=O)[C@H]2NC[C@@H]3CC(N)CCO[C@H]32)[C@H](C)Cl)C(O)[C@@H](O)[C@H]1O (some centres unmarked) [FSA-510012] | > 64 µg/mL | > 64 µg/mL | > 64 µg/mL | > 64 µg/mL | – | – | – | – | – | – | – | – | – | MIC (S. pneumoniae ATCC 49619): > 64 µg/mL; MIC (S. aureus ATCC 29213; ATCC29213): > 64 µg/mL; MIC (H. influenzae ATCC 49247): > 64 µg/mL; MIC (C. difficile BAA 1805): > 64 µg/mL; MIC (E. coli ATCC 25922): > 64 µg/mL; MIC (K. pneumoniae ATCC 10031): > 64 µg/mL; MIC (E. faecalis ATCC 29212; ATCC29212): > 64 µg/mL
CSC1O[C@H]([C@H](NC(=O)[C@H]2NC[C@@H]3C[C@@H](CCc4cccc(F)c4)CCO[C@H]32)[C@H](C)Cl)C(O)[C@@H](O)[C@H]1O (some centres unmarked) [FSA-510022] | 4 µg/mL (≈ 7.13 µM) | 4 µg/mL (≈ 7.13 µM) | – | – | ≤ 0.06 µg/mL | 1 µg/mL (≈ 1.78 µM) | ≤ 0.06 µg/mL | 2 µg/mL (≈ 3.56 µM) | ≤ 0.06 µg/mL | 4 µg/mL (≈ 7.13 µM) | – | – | – | MIC ([3]; S. pyogenes MMX 946 MacRes): 0.5 µg/mL (≈ 0.891 µM); MIC ([5]; E. faecalis MMX 847 MacRes): 2 µg/mL (≈ 3.56 µM); MIC (K. pneumoniae ATCC 10031; [9]): 2 µg/mL (≈ 3.56 µM)
CNC1CCO[C@@H]2[C@H](CN[C@@H]2C(=O)N[C@H]([C@H](C)Cl)[C@H]2OC(SC)[C@H](O)[C@H](O)C2O)C1 (some centres unmarked) [FSA-510065] | > 64 µg/mL | > 64 µg/mL | > 64 µg/mL | > 64 µg/mL | – | – | – | – | – | – | – | – | – | MIC (S. pneumoniae ATCC 49619): > 64 µg/mL; MIC (S. aureus ATCC 29213; ATCC29213): > 64 µg/mL; MIC (H. influenzae ATCC 49247): > 64 µg/mL; MIC (C. difficile BAA 1805): > 64 µg/mL; MIC (E. coli ATCC 25922): > 64 µg/mL; MIC (K. pneumoniae ATCC 10031): > 64 µg/mL; MIC (E. faecalis ATCC 29212; ATCC29212): > 64 µg/mL
COc1ccc(C2CCO[C@@H]3[C@H](CN[C@@H]3C(=O)N[C@H]([C@H](C)Cl)[C@H]3OC(SC)[C@H](O)[C@H](O)C3O)C2)cc1 (some centres unmarked) [FSA-511045] | 8 µg/mL (≈ 14.7 µM) | 37 µg/mL (≈ 67.9 µM) | – | – | ≤ 0.06 µg/mL | – | – | – | ≤ 0.06 µg/mL | – | 0.3 µg/mL (≈ 0.55 µM) | > 64 µg/mL | 1 µg/mL (≈ 1.83 µM) | –
CSC1O[C@H]([C@H](NC(=O)[C@H]2NC[C@@H]3C=C(c4cccc(F)c4)CCO[C@@H]23)[C@H](C)Cl)C(O)[C@@H](O)[C@H]1O (some centres unmarked) [FSA-511071] | – | – | 1 µg/mL (≈ 1.88 µM) | 2 µg/mL (≈ 3.77 µM) | – | > 64 µg/mL | 0.5 µg/mL (≈ 0.942 µM) | > 64 µg/mL | 0.5 µg/mL (≈ 0.942 µM) | – | 2 µg/mL (≈ 3.77 µM) | – | 4 µg/mL (≈ 7.53 µM) | MIC [3, 11]: > 64 µg/mL; MIC (E. coli ATCC 25922; [12]): > 64 µg/mL; MIC [5, 13]: > 64 µg/mL
CSC1O[C@H]([C@H](NC(=O)[C@H]2NC[C@@H]3C=C(c4ccccc4F)CCO[C@@H]23)[C@H](C)Cl)C(O)[C@@H](O)[C@H]1O (some centres unmarked) [FSA-511073] | – | – | 1 µg/mL (≈ 1.88 µM) | 1 µg/mL (≈ 1.88 µM) | – | > 64 µg/mL | 12 µg/mL (≈ 22.6 µM) | > 64 µg/mL | – | – | 1 µg/mL (≈ 1.88 µM) | – | 4 µg/mL (≈ 7.53 µM) | MIC [3, 11]: > 64 µg/mL; MIC (E. coli ATCC 25922; [12]): > 64 µg/mL; MIC [5, 13]: > 64 µg/mL
CSC1O[C@H]([C@H](NC(=O)[C@H]2NC[C@@H]3C[C@@H](c4cccc(F)c4)CCO[C@H]32)[C@H](C)Cl)C(O)[C@@H](O)[C@H]1O (some centres unmarked) [FSA-511077] | 4 µg/mL (≈ 7.5 µM) | – | 0.23 µg/mL (≈ 0.431 µM) | – | ≤ 0.06 µg/mL | – | ≤ 0.06 µg/mL | > 64 µg/mL | ≤ 0.06 µg/mL | 8 µg/mL (≈ 15 µM) | – | > 64 µg/mL | 0.5 µg/mL (≈ 0.938 µM) | MIC (K. pneumoniae ATCC 10031; [9]): 8 µg/mL (≈ 15 µM)
CSC1O[C@H]([C@H](NC(=O)[C@H]2NC[C@@H]3C[C@@H](c4cc(F)cc(F)c4)CCO[C@H]32)[C@H](C)Cl)C(O)[C@@H](O)[C@H]1O (some centres unmarked) [FSA-511080] | 4 µg/mL (≈ 7.26 µM) | – | – | – | ≤ 0.06 µg/mL | – | ≤ 0.06 µg/mL | > 64 µg/mL | ≤ 0.06 µg/mL | 8 µg/mL (≈ 14.5 µM) | – | > 64 µg/mL | 0.5 µg/mL (≈ 0.907 µM) | MIC ([5]; E. faecalis MMX 847 MacRes): > 64 µg/mL
CSC1O[C@H]([C@H](NC(=O)[C@H]2NC[C@@H]3C[C@@H](c4ccc(C#N)cc4)CCO[C@H]32)[C@H](C)Cl)C(O)[C@@H](O)[C@H]1O (some centres unmarked) [FSA-512081a] | – | – | – | 1 µg/mL (≈ 1.85 µM) | – | – | ≤ 0.06 µg/mL | – | – | – | – | – | – | –
CSC1O[C@H]([C@H](NC(=O)[C@H]2NC[C@@H]3C[C@H](c4ccc(C#N)cc4)CCO[C@H]32)[C@H](C)Cl)C(O)[C@@H](O)[C@H]1O (some centres unmarked) [FSA-512081b] | 8 µg/mL (≈ 14.8 µM) | 37 µg/mL (≈ 68.5 µM) | 1 µg/mL (≈ 1.85 µM) | 1 µg/mL (≈ 1.85 µM) | ≤ 0.06 µg/mL | – | – | – | ≤ 0.06 µg/mL | – | – | – | 1 µg/mL (≈ 1.85 µM) | –
